Measurements as given in ChEMBL document CHEMBL3046944, “NEW QUASSINOIDS FROM AILANTHUS EXCELSA” (Med Chem Res, 2004).
Calls of active or inactive are those of the source. No cut-off for these calls is given here.

Legend:
Plasmodium falciparum [1] = assay: Antimalarial activity against Plasmodium falciparum assessed as growth inhibition at 25 nM; type: functional, organism-based
Plasmodium falciparum [2] = assay: Antimalarial activity against Plasmodium falciparum assessed as growth inhibition at 0.2 uM; type: functional, organism-based

SMILES | growth inhibition (GI) (Plasmodium falciparum [1]) | growth inhibition (GI) (Plasmodium falciparum [2])
CCN(CC)CCCC(C)Nc1ccnc2cc(Cl)ccc12 (configuration not stated) | Active | 
CCC(C)C(=O)O[C@H]1C(=O)O[C@@H]2C[C@H]3C(C)=C[C@H](O)[C@@H](O)[C@]3(C)[C@H]3[C@@]4(O)OC[C@]32[C@@H]1[C@@H](C)[C@H]4O (some centres not stated) |  | Active
